Measurements reported in patent publication US8318762B2, “Pyrazolospiroketone acetyl-CoA carboxylase inhibitors” (Pfizer Inc., priority 2008, dated 2012).

Each compound was assayed against T1, recombinant human ACC2 (Homo sapiens, UniProt O00763) (assay: Measurement of human ACC2 inhibition (recombinant hACC2 Transcreener ADP detection FP assay)). Settings: not given.
T1 construct: a full length Cytomax clone of ACC2 was purchased from Cambridge Bioscience Limited; made in house; host or cells: CHO cells (tetracycline induction, pcDNA5 FRT TO-TOPO); purified on a Softlink Soft Release Avidin column
Type: biochemical
Experimental: [3] Measurement of human ACC2 inhibition. Human ACC2 inhibition was measured using purified recombinant human ACC2 (hrACC2). […] The ACC2 was expressed in CHO cells by tetracycline induction and harvested in 5 liters of DMEM/F12 with glutamine, biotin, hygromycin and blasticidin with 1 μg/mL tetracycline (Invitrogen, Carlsbad, Calif.). The conditioned medium containing ACC2 was then applied to a Softlink Soft Release Avidin column (Promega, Madison, Wis.) and eluted with 5 mM biotin. […] The purified ACC2 was dialyzed in 50 mM Tris, 200 mM NaCl, 4 mM DTT, 2 mM EDTA, and 5% glycerol. […] The final conditions for the assay were 50 mM HEPES, pH7.5, 5 mM MgCl2, 5 mM tripotassium citrate, 2 mM DTT, 0.5 mg/mL BSA, 30 μM acetyl-CoA, 50 μM ATP, and 8 mM KHCO3. Typically, a 10 μl reaction was run for 1 hour at room temperature, and 10 μl of Transcreener stop and detect buffer was added and incubated for an additional 1 hour.

T1 sequence (O00763 whole entry): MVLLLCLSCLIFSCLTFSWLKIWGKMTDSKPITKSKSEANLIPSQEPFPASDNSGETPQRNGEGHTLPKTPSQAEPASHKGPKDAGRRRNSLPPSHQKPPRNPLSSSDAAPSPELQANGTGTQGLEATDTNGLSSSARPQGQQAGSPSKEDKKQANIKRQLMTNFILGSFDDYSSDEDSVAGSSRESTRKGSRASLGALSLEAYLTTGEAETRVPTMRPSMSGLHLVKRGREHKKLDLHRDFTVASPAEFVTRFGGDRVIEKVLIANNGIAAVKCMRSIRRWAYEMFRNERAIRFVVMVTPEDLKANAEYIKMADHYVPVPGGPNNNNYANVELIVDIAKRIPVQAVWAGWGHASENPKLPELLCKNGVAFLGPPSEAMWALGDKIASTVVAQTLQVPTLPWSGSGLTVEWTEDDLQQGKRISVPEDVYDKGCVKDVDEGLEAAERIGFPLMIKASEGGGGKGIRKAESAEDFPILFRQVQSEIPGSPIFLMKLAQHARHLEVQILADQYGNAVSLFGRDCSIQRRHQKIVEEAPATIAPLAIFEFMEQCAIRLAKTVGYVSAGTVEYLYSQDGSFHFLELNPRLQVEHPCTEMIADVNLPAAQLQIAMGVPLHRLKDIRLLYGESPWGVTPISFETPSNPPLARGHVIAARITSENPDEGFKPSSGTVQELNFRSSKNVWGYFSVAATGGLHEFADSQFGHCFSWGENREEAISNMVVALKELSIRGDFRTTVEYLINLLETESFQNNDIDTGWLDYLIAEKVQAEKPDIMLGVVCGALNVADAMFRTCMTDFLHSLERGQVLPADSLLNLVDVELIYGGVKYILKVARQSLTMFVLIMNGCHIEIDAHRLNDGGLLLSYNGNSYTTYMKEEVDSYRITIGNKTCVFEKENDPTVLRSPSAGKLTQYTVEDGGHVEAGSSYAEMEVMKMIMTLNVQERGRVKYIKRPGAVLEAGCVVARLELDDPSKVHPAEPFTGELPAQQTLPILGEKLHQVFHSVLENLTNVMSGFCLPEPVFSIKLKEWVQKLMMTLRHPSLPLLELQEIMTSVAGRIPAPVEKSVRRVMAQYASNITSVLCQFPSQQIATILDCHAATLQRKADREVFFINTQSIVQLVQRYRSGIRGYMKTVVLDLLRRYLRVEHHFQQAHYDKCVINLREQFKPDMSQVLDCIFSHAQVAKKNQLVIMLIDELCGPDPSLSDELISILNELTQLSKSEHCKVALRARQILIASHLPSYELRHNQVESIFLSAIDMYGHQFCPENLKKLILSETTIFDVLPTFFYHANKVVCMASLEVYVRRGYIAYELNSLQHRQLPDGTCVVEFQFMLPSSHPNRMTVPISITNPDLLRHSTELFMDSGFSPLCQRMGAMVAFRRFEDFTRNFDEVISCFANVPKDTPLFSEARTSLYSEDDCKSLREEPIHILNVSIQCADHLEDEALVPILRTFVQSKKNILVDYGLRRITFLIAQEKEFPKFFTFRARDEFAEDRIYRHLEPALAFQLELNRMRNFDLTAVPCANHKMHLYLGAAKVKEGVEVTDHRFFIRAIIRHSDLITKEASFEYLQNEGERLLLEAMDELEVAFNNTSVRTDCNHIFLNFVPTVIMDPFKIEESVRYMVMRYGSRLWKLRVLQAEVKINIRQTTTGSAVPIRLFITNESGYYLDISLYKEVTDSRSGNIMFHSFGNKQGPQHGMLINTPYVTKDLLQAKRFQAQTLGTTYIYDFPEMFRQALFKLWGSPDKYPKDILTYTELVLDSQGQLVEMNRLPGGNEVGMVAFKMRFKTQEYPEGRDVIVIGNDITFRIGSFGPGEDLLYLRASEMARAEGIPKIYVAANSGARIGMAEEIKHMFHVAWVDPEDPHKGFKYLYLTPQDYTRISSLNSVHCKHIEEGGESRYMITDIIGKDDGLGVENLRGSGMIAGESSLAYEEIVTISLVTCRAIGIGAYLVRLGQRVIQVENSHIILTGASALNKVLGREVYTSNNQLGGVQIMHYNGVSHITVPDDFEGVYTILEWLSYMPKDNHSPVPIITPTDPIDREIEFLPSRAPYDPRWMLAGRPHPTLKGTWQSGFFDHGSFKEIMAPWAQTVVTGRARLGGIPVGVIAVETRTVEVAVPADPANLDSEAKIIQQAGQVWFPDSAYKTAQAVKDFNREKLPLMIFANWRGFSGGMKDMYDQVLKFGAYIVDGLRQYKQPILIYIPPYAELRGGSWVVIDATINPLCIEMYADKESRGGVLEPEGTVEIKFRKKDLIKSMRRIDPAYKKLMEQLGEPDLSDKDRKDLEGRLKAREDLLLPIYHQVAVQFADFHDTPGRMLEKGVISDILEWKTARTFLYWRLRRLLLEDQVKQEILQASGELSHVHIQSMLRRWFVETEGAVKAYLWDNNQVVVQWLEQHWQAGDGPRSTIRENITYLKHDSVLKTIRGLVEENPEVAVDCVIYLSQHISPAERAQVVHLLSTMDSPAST

| Structure (SMILES) | IC50 [nM] |
| --- | --- |
| CCn1nc2c(c1C)OC1(CCN(C(=O)c3cc(C)c4nc[nH]c4c3)CC1)CC2=O [3.005] | 79 |

Same assay, conditions: recombinant hACC2 transcreener assay; read-out: rhACC2 IC50

| Structure (SMILES) | IC50 [nM] |
| --- | --- |
| CCn1nc2c(c1C)OC1(CCN(C(=O)c3cc(C)c4nc(C)[nH]c4c3)CC1)CC2=O [3.002] | 54 |
| CCn1cc2c(n1)C(=O)CC1(CCN(C(=O)c3cc(C)c4nc(C)[nH]c4c3)CC1)O2 [3.004] | 111 |
| Cc1cc(C(=O)N2CCC3(CC2)CC(=O)c2nn(C4CCC4)cc2O3)cc2[nH]cnc12 [3.006] | 55 |
| Cc1cc(C(=O)N2CCC3(CC2)CC(=O)c2nn(C(C)C)cc2O3)cc2[nH]cnc12 [3.007] | 24 |
| Cc1cc(C(=O)N2CCC3(CC2)CC(=O)c2nn(C(C)(C)C)cc2O3)cc2[nH]cnc12 [3.008] | 6 |
| Cc1cc(C(=O)N2CCC3(CC2)CC(=O)c2nn(C(C)C)cc2O3)cc2c1ncn2C [3.009] | 22 |
| CC(C)(C)n1cc2c(n1)C(=O)CC1(CCN(C(=O)c3ccc4nc[nH]c4c3)CC1)O2 [3.010] | 12 |
| Cc1nc2ccc(C(=O)N3CCC4(CC3)CC(=O)c3nn(C(C)(C)C)cc3O4)cc2[nH]1 [3.011] | 15 |
| Cc1nc2ccc(C(=O)N3CCC4(CC3)CC(=O)c3nn(C(C)C)cc3O4)cc2[nH]1 [3.012] | 129 |
| CCn1nc2c(c1C)OC1(CCN(C(=O)c3ccc4nc(C)[nH]c4c3)CC1)CC2=O [3.013] | 211 |
| Cn1cnc2ccc(C(=O)N3CCC4(CC3)CC(=O)c3nn(C(C)(C)C)cc3O4)cc21 [3.014] | 21 |
| CC(C)n1cc2c(n1)C(=O)CC1(CCN(C(=O)c3ccc4ncn(C)c4c3)CC1)O2 [3.015] | 153 |
| CCn1nc2c(c1C)OC1(CCN(C(=O)c3ccc4ncn(C)c4c3)CC1)CC2=O [3.016] | 271 |
| Cc1cc(C(=O)N2CCC3(CC2)CC(=O)c2nn(C(C)C)c(C)c2O3)cc2[nH]cnc12 [3.017] | 14 |
| CCn1nc2c(c1C)OC1(CCN(C(=O)c3cc(F)c4nc(C)[nH]c4c3)CC1)CC2=O [3.018] | 105 |
| Cc1nc2c(F)cc(C(=O)N3CCC4(CC3)CC(=O)c3nn(C(C)(C)C)cc3O4)cc2[nH]1 [3.019] | 17 |
| CCn1nc2c(c1C)OC1(CCN(C(=O)c3cc(F)c4nc[nH]c4c3)CC1)CC2=O [3.020] | 139 |
| CC(C)n1cc2c(n1)C(=O)CC1(CCN(C(=O)c3cc(F)c4nc[nH]c4c3)CC1)O2 [3.021] | 39 |
| CC(C)(C)n1cc2c(n1)C(=O)CC1(CCN(C(=O)c3cc(F)c4nc[nH]c4c3)CC1)O2 [3.022] | 14 |
| Cc1cc(C(=O)N2CCC3(CC2)CC(=O)c2nn(C(C)(C)C)cc2O3)cc2c1ncn2C [3.023] | 15 |
| Cc1nc2c(F)cc(C(=O)N3CCC4(CC3)CC(=O)c3nn(C(C)C)cc3O4)cc2[nH]1 [3.024] | 70 |
| CCn1nc2c(c1C)OC1(CCN(C(=O)c3cc(C)c4ncn(C)c4c3)CC1)CC2=O [3.025] | 49 |
| CCn1nc2c(c1C)OC1(CCN(C(=O)c3ccc4nc[nH]c4c3)CC1)CC2=O [3.026] | 168 |
| Cc1nc2ccc(C(=O)N3CCC4(CC3)CC(=O)c3nn(C(C)(C)C)cc3O4)cc2n1C [3.027] | 42 |
| CC(C)n1cc2c(n1)C(=O)CC1(CCN(C(=O)c3ccc4cn(C)nc4c3)CC1)O2 [5.001] | 675 |

| Structure (SMILES) | IC50 [nM] |
| --- | --- |
| CCn1nc2c(c1C)OC1(CCN(C(=O)c3ccc4ccc(OC)cc4c3)CC1)CC2=O [6.001] | 13 |
| COc1ccc2ccc(C(=O)N3CCC4(CC3)CC(=O)c3nn(C(C)(C)C)cc3O4)cc2c1 [6.003] | 2 |
| Cc1ccc2cc(C(=O)N3CCC4(CC3)CC(=O)c3nn(C(C)(C)C)cc3O4)ccc2c1 [6.005] | 48 |
| COc1cccc2cc(C(=O)N3CCC4(CC3)CC(=O)c3nn(C(C)(C)C)cc3O4)ccc12 [6.006] | 7 |
| CCn1nc2c(c1C)OC1(CCN(C(=O)c3ccc4ccccc4c3)CC1)CC2=O [6.007] | 40 |
| CC(C)n1cc2c(n1)C(=O)CC1(CCN(C(=O)c3ccc4snc(N)c4c3)CC1)O2 [7.001] | 16 |
| CC(C)(C)n1cc2c(n1)C(=O)CC1(CCN(C(=O)c3ccc4snc(N)c4c3)CC1)O2 [7.002] | 3 |
| CCn1nc2c(c1C)OC1(CCN(C(=O)c3ccc4snc(N)c4c3)CC1)CC2=O [7.003] | 19 |
| CC(C)(C)n1cc2c(n1)C(=O)CC1(CCN(C(=O)c3ccc4sncc4c3)CC1)O2 [7.004] | 23 |
| CCn1nc2c(c1C)OC1(CCN(C(=O)c3ccc4sncc4c3)CC1)CC2=O [7.005] | 36 |
| CC(C)n1cc2c(n1)C(=O)CC1(CCN(C(=O)c3ccc4sncc4c3)CC1)O2 [7.006] | 92 |
| Cc1cc(C(=O)N2CCC3(CC2)CC(=O)c2nn(C(C)(C)C)cc2O3)cc2cnsc12 [7.007] | 5 |
| CCn1nc2c(c1C)OC1(CCN(C(=O)c3cc(C)c4sncc4c3)CC1)CC2=O [7.008] | 93 |
| Cc1cc(C(=O)N2CCC3(CC2)CC(=O)c2nn(C(C)C)cc2O3)cc2cnsc12 [7.009] | 18 |
| Cc1cc(C(=O)N2CCC3(CC2)CC(=O)c2nn(C(C)(C)C)cc2O3)cc2ncn(C)c12 [8.001] | 36 |
| Cc1cc(C(=O)N2CCC3(CC2)CC(=O)c2nn(C(C)C)cc2O3)cc2ncn(C)c12 [8.002] | 59 |
| CCn1nc2c(c1C)OC1(CCN(C(=O)c3cc(C)c4c(c3)ncn4C)CC1)CC2=O [8.003] | 87 |
| CCn1nc2c(c1C)OC1(CCN(C(=O)c3ccc4c(c3)nc(C)n4CC)CC1)CC2=O [8.004] | 481 |
| CCn1nc2c(c1C)OC1(CCN(C(=O)c3ccc4c(c3)ncn4C)CC1)CC2=O [8.005] | 159 |
| CCn1nc2c(c1C)OC1(CCN(C(=O)c3ccc4c(c3)nc(C)n4C)CC1)CC2=O [8.006] | 266 |
| Cn1cnc2cc(C(=O)N3CCC4(CC3)CC(=O)c3nn(C(C)(C)C)cc3O4)ccc21 [8.007] | 58 |
| CCn1c(C)nc2cc(C(=O)N3CCC4(CC3)CC(=O)c3nn(C(C)(C)C)cc3O4)ccc21 [8.008] | 52 |
| Cc1nc2cc(C(=O)N3CCC4(CC3)CC(=O)c3nn(C(C)(C)C)cc3O4)ccc2n1C [8.009] | 47 |
| Cn1c(O)nc2cc(C(=O)N3CCC4(CC3)CC(=O)c3nn(C(C)(C)C)cc3O4)ccc21 [8.010] | 18 |
| CCn1nc2c(c1C)OC1(CCN(C(=O)c3ccc4c(c3)nc(O)n4C)CC1)CC2=O [8.011] | 186 |

| Structure (SMILES) | IC50 [nM] |
| --- | --- |
| CC(C)n1cc2c(n1)C(=O)CC1(CCN(C(=O)c3ccc4ocnc4c3)CC1)O2 [9.001] | 300 |
| CC(C)(C)n1cc2c(n1)C(=O)CC1(CCN(C(=O)c3ccc4ocnc4c3)CC1)O2 [9.002] | 291 |
| COc1cc(C(=O)N2CCC3(CC2)CC(=O)c2nn(C(C)(C)C)cc2O3)cc2nc(C)oc12 [9.003] | 29 |
| COc1cc(C(=O)N2CCC3(CC2)CC(=O)c2nn(C(C)C)cc2O3)cc2nc(C)oc12 [9.004] | 83 |
| CCn1nc2c(c1C)OC1(CCN(C(=O)c3cc(OC)c4oc(C)nc4c3)CC1)CC2=O [9.005] | 179 |
| CCn1nc2c(c1C)OC1(CCN(C(=O)c3ccc4ncsc4c3)CC1)CC2=O [10.001] | 285 |
| CCn1nc2c(c1C)OC1(CCN(C(=O)c3cc(C)c4[nH]c(=O)ccc4c3)CC1)CC2=O [11.001] | 33 |
| Cc1cc(C(=O)N2CCC3(CC2)CC(=O)c2nn(C(C)(C)C)cc2O3)cc2ccc(=O)[nH]c12 [11.002] | 11 |
| CCn1nc2c(c1C)OC1(CCN(C(=O)c3ccc4c(c3)N(C)C(=O)CC4)CC1)CC2=O [12.001] | 299 |
| CCn1nc2c(c1C)OC1(CCN(C(=O)c3ccc4c(c3)NC(=O)CC4)CC1)CC2=O [12.002] | 36 |
| CN1C(=O)CCc2ccc(C(=O)N3CCC4(CC3)CC(=O)c3nn(C(C)(C)C)cc3O4)cc21 [12.003] | 52 |
| CC(C)(C)n1cc2c(n1)C(=O)CC1(CCN(C(=O)c3ccc4c(c3)NC(=O)CC4)CC1)O2 [12.004] | 14 |
| CC(C)(C)n1cc2c(n1)C(=O)CC1(CCN(C(=O)c3ccc4c(c3)NC(=O)CO4)CC1)O2 [12.005] | 45 |
| CCn1nc2c(c1C)OC1(CCN(C(=O)c3ccc4c(c3)CCC(=O)N4)CC1)CC2=O [13.001] | 421 |
| CCn1nc2c(c1C)OC1(CCN(C(=O)c3ccc4c(c3)OCC(=O)N4)CC1)CC2=O [13.002] | 861 |
| CC(C)(C)n1cc2c(n1)C(=O)CC1(CCN(C(=O)c3ccc4c(c3)OCC(=O)N4)CC1)O2 [13.003] | 49 |
| CC(C)(C)n1cc2c(n1)C(=O)CC1(CCN(C(=O)c3ccc4c(c3)CCC(=O)N4)CC1)O2 [13.004] | 33 |
| Cc1nc2cc(C(=O)N3CCC4(CC3)CC(=O)c3nn(C(C)(C)C)cc3O4)ccc2s1 [14.001] | 7 |
| CCn1nc2c(c1C)OC1(CCN(C(=O)c3ccc4sc(C)nc4c3)CC1)CC2=O [14.002] | 176 |
| Cc1ccc2cc(C(=O)N3CCC4(CC3)CC(=O)c3nn(C(C)(C)C)cc3O4)ccc2n1 [15.001] | 26 |
| CC(C)(C)n1cc2c(n1)C(=O)CC1(CCN(C(=O)c3ccc4ncccc4c3)CC1)O2 [15.002] | 11 |
| CCn1nc2c(c1C)OC1(CCN(C(=O)c3ccc4ncccc4c3)CC1)CC2=O [15.003] | 179 |
| CC(C)(C)n1cc2c(n1)C(=O)CC1(CCN(C(=O)c3ccc4cccnc4c3)CC1)O2 [16.001] | 12 |
| CCn1nc2c(c1C)OC1(CCN(C(=O)c3ccc4cccnc4c3)CC1)CC2=O [16.002] | 250 |
| CC(C)(C)n1cc2c(n1)C(=O)CC1(CCN(C(=O)c3ccc4occc4c3)CC1)O2 [17.001] | 33 |
